# Test results from US10738049B2, “N-{3-[3-cyclopropyl-5-(2-fluoro-4-iodophenylamino)-6,8-dimethyl-2,4,7-trioxo-3,4,6,7-tetrahydro-2H-pyrido[4,3-D]pyrimidin-1-YL]-phenyl}-cyclopropanecarboxamide dimethyl sulfoxide solvate as an MEK1/2 inhibitor” (R-PHARM JOINT STOCK COMPANY (R-PHARM, JSC), priority 2016, dated 2020).
# Like-named read-outs stand apart in the source and are kept apart here.
# Legend:
# [1] = Determination of thermodynamic solubility; format: physicochemical; conditions: for solubility at 24 h: 25 °C, thermodynamic from solid
# Description: Use additional quantities of the substances until the solution becomes turbid. Incubate vials with the solution for 24 h at 25° C. with mixing to achieve equilibrium between saturated solution and precipitate. Upon equilibration filter 200 μL of the solution (in duplicate) through a 96-well filter plate (Millipore) to separate the precipitate. Determine concentrations of the compounds in the filtrate by spectrophotometry using standard calibration curve. Carry out measurement of optical absorption spectrum of the substance and plot calibration curve at the selected wavelength (usually corresponding to the substance absorption maximum λmax). Calculate concentration of the substance in the filtrate (i.e., solubility) by the following equation: Solubility=(ODλmax filtrate−ODλmax blank)/Slope×1.67×Filtrate dilution,
# ODλmax filtrate=absorbance of the filtrate:
# ODλmax blank=absorbance of the blank solution without the substance;
# Slope=slope of the calibration curve;
# 1.67=dilution factor for the filtrate in acetonitrile;
# Filtrate dilution=dilution factor for the filtrate in the buffer.
# [2] = cited from earlier work
# [3] = tested on: A375 human melanoma xenograft; test: Study of efficiency in human melanoma xenograft model; format: in vivo, NMRI nude female mice; conditions: for T/C / Vavg (average tumor volume): after 21 days of treatment
# Description: Study of efficiency in human melanoma xenograft model. The study was carried out in ProQinase GmbH Freiburg, Breisacher Str. 117, D-79106 Freiburg, GERMANY.
# A375 human melanoma cells were cultivated in vials with DMEM medium with addition of 10% FBS in a humid atmosphere containing 95% of air and 5% of CO2 at 37° C. Cancer cells were passaged to animals after an adaptation period. For that end the cells were collected using TrypLE Express (Invitrogen), washed and suspended in sterile PBS to the final concentration of 3×10^7 cells/mL. This cell suspension was injected subcutaneously (SC) in mice left flanks (3×10^6 cells or 100 μL per mouse).
# Measurement of subcutaneously implanted tumors was carried out 2 times a week starting from the day of cells introduction. Tumor volume (mm^3) was determined by the equation: V=L×W^2/2,
# where L corresponds to maximum and W to minimum tumor diameter (mm). The measurements were carried out using a slide caliper.
# The study included calculation of tumor growth inhibition values: T/C=Vexp/Vctrl×100%,
# Vctrl=average tumor volume in the control group;
# Vexp=average tumor volume in the experimental group.
# Vini=initial tumor volume at the start of treatment;
# Vfin=tumor volume at the end of treatment.
# [4] = single-dose oral, mice; cited from earlier work
# [5] = Body weight and deaths during treatment in the xenograft study
# Description: The animals were treated with the test products for 21 days.
# When average tumor size reached 100-200 mM^3 the animals were subdivided into experimental groups and treatment with the test drugs was started. The products were administered intragastrically daily, while the control group received the solvent.
# Also, health and behavior of animals were monitored, numbers of lethal outcomes and tumor regressions were recorded: Regression=(Vini−Vfin)/Vi×100%,
# Measurement of animal weights was carried out 3 times a week.
# [6] = molecular target: T1, MEK1 (Homo sapiens, UniProt Q02750); test: MEK1 kinase activity, Z'-LYTE screening platform; format: biochemical; conditions: 100 μM ATP, 1% DMSO
# T1 construct: purchased Life Technologies
# Description: Assay. The substances were tested for the effect on MEK1 kinase activity using Z′-LYTE screening platform (Life Technologies). Concentration of DMSO in the reaction mixture was 1%. Dilute 100 nL of 100-fold sinks of the substances under study in 100% DMSO in 2.4 μL of kinase buffer (50 mM of HEPES pH 7.5, 0.01% BRIJ-35, 10 mM of mgCl2, 1 mM of EGTA) and add to 5 μL of 2-fold Substrate/Kinase mixture (MEK1/inactivated MARK1 (ERK2)/Ser/Thr03, final content 0.08-0.31 ng of MEK1, 105 ng of inactivated MARK1 (ERK2), and 2 μM of Ser/Thr03) in 384-well plate (black, small-volume manufactured by Corning, κaT. #3676). Pre-incubate the substances with kinases for 10 min at ambient temperature. After that add 2.5 μL of 4-fold ATP solution to start the reaction (final concentration of ATP in the reaction mixture is 100 μM). After 30 sec of incubation on a shaker incubate the reaction for 60 min at ambient temperature. Then add 5 μL of Reagent B (Life Technologies) diluted as 1:1024 and incubate for 60 min more at ambient temperature. Measure fluorescence with excitation at 400 nm and emission at 445 nm and 520 nM.
# Calculate % phosphorylation as follows:
# Calculate % inhibition as follows:
# C100%=average coumarin emission signal, 100% phosphorylation control;
# C0%=average coumarin emission signal, 0% phosphorylation control;
# F100%=average fluorescein emission signal, 100% phosphorylation control; […]
# [7] = 4% dimethyl sulfoxide and 96% corn oil, oil or lipid, 4% dimethyl sulfoxide, 96% corn oil, read-out: Solubility in a mixture of 4% sulfoxide and 96% corn oil
# [8] = dimethyl sulfoxide, organic solvent or mixture, read-out: Solubility in dimethyl sulfoxide
# [9] = water, water, read-out: Solubility in water
# [10] = 3.0 mg/kg intragastrically daily
# [11] = 0.3 mg/kg intragastrically daily
# [12] = 1.0 mg/kg intragastrically daily
# [13] = 10.0 mg/kg intragastrically daily
# T1 sequence (Q02750 whole entry): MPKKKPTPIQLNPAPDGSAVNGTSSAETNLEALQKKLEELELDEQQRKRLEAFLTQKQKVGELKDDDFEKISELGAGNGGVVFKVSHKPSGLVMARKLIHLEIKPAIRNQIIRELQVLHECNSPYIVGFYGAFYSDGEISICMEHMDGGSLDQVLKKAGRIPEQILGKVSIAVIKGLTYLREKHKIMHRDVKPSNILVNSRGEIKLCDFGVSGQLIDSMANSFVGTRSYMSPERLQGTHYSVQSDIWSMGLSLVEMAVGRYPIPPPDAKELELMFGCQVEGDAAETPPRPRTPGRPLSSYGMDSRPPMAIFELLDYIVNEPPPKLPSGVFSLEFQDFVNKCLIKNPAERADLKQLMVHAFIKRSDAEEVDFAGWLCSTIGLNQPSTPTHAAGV
compound,measurement,setting,value
"CC(=O)Nc1cccc(-n2c(=O)n(C3CC3)c(=O)c3c(Nc4ccc(I)cc4F)n(C)c(=O)c(C)c32)c1 [Trametinib, reference compound]",solubility at 24 h,[1]; [7],3000 µg/mL
same,solubility at 24 h,[1]; [8],22000 µg/mL
same,solubility at 24 h,[1]; [9],< 1000 µg/mL
same,Solubility in aqueous media,[2]; between pH=2 and pH=8,practically insoluble
same,Solubility in organic solvents,[2]; organic solvents including highly polar ones,very slightly soluble
"CC(=O)Nc1cccc(-n2c(=O)n(C3CC3)c(=O)c3c(Nc4ccc(I)cc4F)n(C)c(=O)c(C)c32)c1 [Mekinist, Trametinib dimethyl sulfoxide, reference compound]",Animals with tumor regression,[3]; 3 mg/kg intragastric,100 % animals
same,T/C,[3]; [10],1.0%
same,Vavg (average tumor volume),[3]; [10],21.1 mm^3
same,LD50,[4],> 2000 mg/kg
same,Animal deaths,[5]; 3 mg/kg intragastric for 9 days,two
"Cc1c(=O)n(C)c(Nc2ccc(I)cc2F)c2c(=O)n(C3CC3)c(=O)n(-c3cccc(NC(=O)C4CC4)c3)c12 [Compound of formula 1, N-{3-[3-cyclopropyl-5-(2-fluoro-4-iodophenylamino)-6,8-dimethyl-2,4,7-trioxo-3,4,6,7-tetrahydro-2H-pyrido[4,3-d]pyrimidin-1-yl]-phenyl}-cyclopropanecarboxamide dimethyl sulfoxide solvate]",Effect on tumor growth,[3]; 0.3 mg/kg intragastric,no effect on tumor growth
same,T/C,[3]; [11],39.5%
same,Vavg (average tumor volume),[3]; [11],834.3 mm^3
same,Animals with tumor regression,[3]; 1 mg/kg,three of eight
same,T/C,[3]; [12],6.7%
same,Vavg (average tumor volume),[3]; [12],140.5 mm^3
same,Animals with tumor regression,[3]; 3 mg/kg,7/8
same,T/C,[3]; [10],4.0%
same,Vavg (average tumor volume),[3]; [10],84.5 mm^3
same,Animals with tumor regression,[3]; 10 mg/kg,8/8
same,T/C,[3]; [13],1.2%
same,Vavg (average tumor volume),[3]; [13],26.1 mm^3
same,solubility at 24 h,[1]; [7],7000 µg/mL
same,solubility at 24 h,[1]; [8],47000 µg/mL
same,Solubility in dimethyl sulfoxide relative to Trametinib,"[1]; dimethyl sulfoxide, ratio to Trametinib",more than 2 times
same,solubility at 24 h,[1]; [9],< 1000 µg/mL
same,Animal body weight loss as compared to the treatment start date,"[5]; 10 mg/kg, throughout the study",not more than 20%
same,Animal deaths,[5]; any of the doses studied (up to 10 mg/kg),did not cause animal deaths
same,IC50,[6],8.02 nM
